Measurements: patent US20250215101A1, “DR5 Agonist and PLK1 Inhibitor or CDK Inhibitor Combination Therapy” (Inhibrx Biosciences, Inc., priority 2022, published 2025)

Experiments:
Experiment in all cases: Cytotoxicity assay, colorectal cancer cell line panel, onvansertib +/- 1 nM INBRX-109
Assay type in all cases: cell-based
SNU-81 = test system: SNU-81
Procedure: (§1) Monolayer cultures of each cell line were harvested for compound screening as detailed below.
(§2) Also on day 2, test and control articles were added.
(§3) On day 4, viability measurements were taken. […] Data was graphed in GraphPad Prism 9.
(§4) The results for a panel of colorectal cancer cell lines are shown in Table 3 and FIGS. 4-6, and the results for a panel of pancreatic cell lines are shown in Table 4 and FIGS. 7 and 8.

T84 = conditions: for EC50: Homo sapiens, T84, T84; for Max Cytotox at 600 nM: T84
Procedure: as §1, §2, §3, §4

RKO = conditions: for EC50: Homo sapiens
Procedure: as §1, §2, §3, §4

HCT 116 = conditions: for Max Cytotox at 600 nM: HCT 116; for EC50: Homo sapiens, HCT-116, HCT 116
Procedure: as §1, §2, §3, §4

LS 513 = conditions: for EC50: Homo sapiens, LS-513, LS 513; for Max Cytotox at 600 nM: LS 513
Procedure: as §1, §2, §3, §4

NCI-H747 = conditions: for EC50: Homo sapiens, NCI-H747, NCI-H747; for Max Cytotox at 600 nM: NCI-H747
Procedure: as §1, §2, §3, §4

SW-480 = conditions: for EC50: Homo sapiens, SW480, SW-480; for Max Cytotox at 600 nM: SW-480
Procedure: as §1, §2, §3, §4

NCI-H716 = conditions: for EC50: Homo sapiens, NCI-H716, NCI-H716; for Max Cytotox at 600 nM: NCI-H716
Procedure: as §1, §2, §3, §4

SW-837 = conditions: for EC50: Homo sapiens, SW837, SW-837; for Max Cytotox at 600 nM: SW-837
Procedure: as §1, §2, §3, §4

SW-948 = conditions: for EC50: Homo sapiens, SW948, SW-948; for Max Cytotox at 600 nM: SW-948
Procedure: as §1, §2, §3, §4

SK-CO-1 = conditions: for EC50: Homo sapiens, SK-CO-1, SK-CO-1; for Max Cytotox at 600 nM: SK-CO-1
Procedure: as §1, §2, §3, §4

LS 123 = conditions: for EC50: Homo sapiens, LS-123, LS 123; for Max Cytotox at 600 nM: LS 123
Procedure: as §1, §2, §3, §4

COLO320DM = conditions: for EC50: Homo sapiens, COLO 320DM
Procedure: as §1, §2, §3, §4

Hutu 80 = conditions: for EC50: Homo sapiens, HuTu80, Hutu 80; for Max Cytotox at 600 nM: Hutu 80
Procedure: as §1, §2, §3, §4

HCT-15 = conditions: for Max Cytotox at 600 nM: HCT-15; for EC50: Homo sapiens, HCT-15, HCT-15
Procedure: as §1, §2, §3, §4

LoVo = conditions: for EC50: Homo sapiens
Procedure: as §1, §2, §3, §4

SW-48 = conditions: for EC50: Homo sapiens, SW48, SW-48; for Max Cytotox at 600 nM: SW-48
Procedure: as §1, §2, §3, §4

SW620 = conditions: for EC50: Homo sapiens, SW-620, SW620; for Max Cytotox at 600 nM: SW620
Procedure: as §1, §2, §3, §4

DLD-1 = conditions: for Max Cytotox at 600 nM: DLD-1; for EC50: Homo sapiens, DLD-1, DLD-1
Procedure: as §1, §2, §3, §4

HT-55 = conditions: for Max Cytotox at 600 nM: HT-55; for EC50: Homo sapiens, HT55, HT-55
Procedure: as §1, §2, §3, §4

SW-1116 = conditions: for EC50: Homo sapiens, SW 1116, SW-1116; for Max Cytotox at 600 nM: SW-1116
Procedure: as §1, §2, §3, §4

SW-1463 = conditions: for EC50: Homo sapiens, SW1463, SW-1463; for Max Cytotox at 600 nM: SW-1463
Procedure: as §1, §2, §3, §4

SNU-C5 = test system: SNU-C5
Procedure: as §1, §2, §3, §4

HCT-8 = conditions: for Max Cytotox at 600 nM: HCT-8; for EC50: Homo sapiens, HCT-8, HCT-8
Procedure: as §1, §2, §3, §4

LS174T = conditions: for EC50: Homo sapiens
Procedure: as §1, §2, §3, §4

LS 180 = conditions: for EC50: Homo sapiens, LS180, LS 180; for Max Cytotox at 600 nM: LS 180
Procedure: as §1, §2, §3, §4

SW-403 = conditions: for EC50: Homo sapiens, SW-403, SW-403; for Max Cytotox at 600 nM: SW-403
Procedure: as §1, §2, §3, §4

HT-29 = conditions: for Max Cytotox at 600 nM: HT-29; for EC50: Homo sapiens, HT-29, HT-29
Procedure: as §1, §2, §3, §4

CN1CCN(c2ccc(OC(F)(F)F)c(Nc3ncc4c(n3)-c3c(c(C(N)=O)nn3CCO)CC4)c2)CC1 [Onvansertib]
EC50 (SNU-81; onvansertib + 1 nM INBRX-109): 71.9 nM
Max Cytotox at 600 nM (SNU-81; onvansertib + 1 nM INBRX-109): 92.3%
EC50 (SNU-81; onvansertib only): 187 nM
Max Cytotox at 600 nM (SNU-81; onvansertib only): 24.3%
EC50 (T84; onvansertib + 1 nM INBRX-109): 297 nM
EC50 (T84; onvansertib only): 355 nM
Max Cytotox at 600 nM (T84; onvansertib + 1 nM INBRX-109): 62.9%
Max Cytotox at 600 nM (T84; onvansertib only): 32.1%
EC50 (RKO; onvansertib + 1 nM INBRX-109): 54.7 nM
EC50 (RKO; onvansertib only): 85.9 nM
Max Cytotox at 600 nM (RKO; onvansertib + 1 nM INBRX-109): 93.8%
Max Cytotox at 600 nM (RKO; onvansertib only): 65.7%
Max Cytotox at 600 nM (HCT 116; onvansertib + 1 nM INBRX-109): 96.6%
Max Cytotox at 600 nM (HCT 116; onvansertib only): 76.0%
EC50 (HCT 116; onvansertib + 1 nM INBRX-109): 66.8 nM
EC50 (HCT 116; onvansertib only): 112 nM
EC50 (LS 513; onvansertib + 1 nM INBRX-109): 101 nM
EC50 (LS 513; onvansertib only): 215 nM
Max Cytotox at 600 nM (LS 513; onvansertib + 1 nM INBRX-109): 93.7%
Max Cytotox at 600 nM (LS 513; onvansertib only): 39.6%
EC50 (NCI-H747; onvansertib + 1 nM INBRX-109): 78.7 nM
EC50 (NCI-H747; onvansertib only): 71.6 nM
Max Cytotox at 600 nM (NCI-H747; onvansertib + 1 nM INBRX-109): 44.5%
Max Cytotox at 600 nM (NCI-H747; onvansertib only): 17.4%
EC50 (SW-480; onvansertib + 1 nM INBRX-109): 93.3 nM
EC50 (SW-480; onvansertib only): 126 nM
Max Cytotox at 600 nM (SW-480; onvansertib + 1 nM INBRX-109): 86.3%
Max Cytotox at 600 nM (SW-480; onvansertib only): 40.7%
EC50 (NCI-H716; onvansertib + 1 nM INBRX-109): 83.6 nM
EC50 (NCI-H716; onvansertib only): 81.3 nM
Max Cytotox at 600 nM (NCI-H716; onvansertib + 1 nM INBRX-109): 51.2%
Max Cytotox at 600 nM (NCI-H716; onvansertib only): 34.8%
EC50 (SW-837; onvansertib + 1 nM INBRX-109): 184 nM
EC50 (SW-837; onvansertib only): 227 nM
Max Cytotox at 600 nM (SW-837; onvansertib + 1 nM INBRX-109): 73.5%
Max Cytotox at 600 nM (SW-837; onvansertib only): 24.5%
EC50 (SW-948; onvansertib + 1 nM INBRX-109): 23.3 nM
EC50 (SW-948; onvansertib only): 97 nM
Max Cytotox at 600 nM (SW-948; onvansertib + 1 nM INBRX-109): 99.0%
Max Cytotox at 600 nM (SW-948; onvansertib only): 43.2%
EC50 (SK-CO-1; onvansertib + 1 nM INBRX-109): 111 nM
EC50 (SK-CO-1; onvansertib only): 113 nM
Max Cytotox at 600 nM (SK-CO-1; onvansertib + 1 nM INBRX-109): 94.2%
Max Cytotox at 600 nM (SK-CO-1; onvansertib only): 52.8%
EC50 (LS 123; onvansertib + 1 nM INBRX-109): 172 nM
EC50 (LS 123; onvansertib only): 150 nM
Max Cytotox at 600 nM (LS 123; onvansertib + 1 nM INBRX-109): 24.1%
Max Cytotox at 600 nM (LS 123; onvansertib only): 9.6%
EC50 (COLO320DM; onvansertib + 1 nM INBRX-109): 283 nM
EC50 (COLO320DM; onvansertib only): 382 nM
Max Cytotox at 600 nM (COLO320DM; onvansertib + 1 nM INBRX-109): 79.6%
Max Cytotox at 600 nM (COLO320DM; onvansertib only): 58.3%
EC50 (Hutu 80; onvansertib + 1 nM INBRX-109): 133 nM
EC50 (Hutu 80; onvansertib only): 138 nM
Max Cytotox at 600 nM (Hutu 80; onvansertib + 1 nM INBRX-109): 86.5%
Max Cytotox at 600 nM (Hutu 80; onvansertib only): 85.4%
Max Cytotox at 600 nM (HCT-15; onvansertib + 1 nM INBRX-109): 94.9%
Max Cytotox at 600 nM (HCT-15; onvansertib only): 61.4%
EC50 (HCT-15; onvansertib + 1 nM INBRX-109): 175 nM
EC50 (HCT-15; onvansertib only): 268 nM
EC50 (LoVo; onvansertib + 1 nM INBRX-109): 41.8 nM
EC50 (LoVo; onvansertib only): 34.1 nM
Max Cytotox at 600 nM (LoVo; onvansertib + 1 nM INBRX-109): 90.8%
Max Cytotox at 600 nM (LoVo; onvansertib only): 29.6%
EC50 (SW-48; onvansertib + 1 nM INBRX-109): 28.3 nM
EC50 (SW-48; onvansertib only): 37.3 nM
Max Cytotox at 600 nM (SW-48; onvansertib + 1 nM INBRX-109): 99.4%
Max Cytotox at 600 nM (SW-48; onvansertib only): 76.6%
EC50 (SW620; onvansertib + 1 nM INBRX-109): 54.6 nM
EC50 (SW620; onvansertib only): 62.1 nM
Max Cytotox at 600 nM (SW620; onvansertib + 1 nM INBRX-109): 90.4%
Max Cytotox at 600 nM (SW620; onvansertib only): 61.8%
Max Cytotox at 600 nM (DLD-1; onvansertib + 1 nM INBRX-109): 90.4%
Max Cytotox at 600 nM (DLD-1; onvansertib only): 45.8%
EC50 (DLD-1; onvansertib + 1 nM INBRX-109): 184 nM
EC50 (DLD-1; onvansertib only): 280 nM
Max Cytotox at 600 nM (HT-55; onvansertib + 1 nM INBRX-109): 87.9%
Max Cytotox at 600 nM (HT-55; onvansertib only): 41.8%
EC50 (HT-55; onvansertib + 1 nM INBRX-109): 44.1 nM
EC50 (HT-55; onvansertib only): 51.4 nM
EC50 (SW-1116; onvansertib + 1 nM INBRX-109): 411 nM
EC50 (SW-1116; onvansertib only): 441 nM
Max Cytotox at 600 nM (SW-1116; onvansertib + 1 nM INBRX-109): 39.4%
Max Cytotox at 600 nM (SW-1116; onvansertib only): 10.4%
EC50 (SW-1463; onvansertib + 1 nM INBRX-109): 98 nM
EC50 (SW-1463; onvansertib only): 201 nM
Max Cytotox at 600 nM (SW-1463; onvansertib + 1 nM INBRX-109): 64.2%
Max Cytotox at 600 nM (SW-1463; onvansertib only): 21.0%
EC50 (SNU-C5; onvansertib + 1 nM INBRX-109): 57.7 nM
Max Cytotox at 600 nM (SNU-C5; onvansertib + 1 nM INBRX-109): 87.7%
EC50 (SNU-C5; onvansertib only): 95.6 nM
Max Cytotox at 600 nM (SNU-C5; onvansertib only): 42.9%
Max Cytotox at 600 nM (HCT-8; onvansertib + 1 nM INBRX-109): 81.3%
Max Cytotox at 600 nM (HCT-8; onvansertib only): 52.7%
EC50 (HCT-8; onvansertib + 1 nM INBRX-109): 200 nM
EC50 (HCT-8; onvansertib only): 205 nM
EC50 (LS174T; onvansertib + 1 nM INBRX-109): 109 nM
EC50 (LS174T; onvansertib only): 252 nM
Max Cytotox at 600 nM (LS174T; onvansertib + 1 nM INBRX-109): 94.1%
Max Cytotox at 600 nM (LS174T; onvansertib only): 59.5%
EC50 (LS 180; onvansertib + 1 nM INBRX-109): 197 nM
EC50 (LS 180; onvansertib only): 505 nM
Max Cytotox at 600 nM (LS 180; onvansertib + 1 nM INBRX-109): 86.2%
Max Cytotox at 600 nM (LS 180; onvansertib only): 42.9%
EC50 (SW-403; onvansertib + 1 nM INBRX-109): 64.9 nM
EC50 (SW-403; onvansertib only): 62.5 nM
Max Cytotox at 600 nM (SW-403; onvansertib + 1 nM INBRX-109): 89.0%
Max Cytotox at 600 nM (SW-403; onvansertib only): 46.4%
Max Cytotox at 600 nM (HT-29; onvansertib + 1 nM INBRX-109): 98.3%
Max Cytotox at 600 nM (HT-29; onvansertib only): 45.6%
EC50 (HT-29; onvansertib + 1 nM INBRX-109): 43 nM
EC50 (HT-29; onvansertib only): 61.6 nM
